In patent US12161698B2, “Synthetic platelets” (CASE WESTERN RESERVE UNIVERSITY, priority 2011, dated 2024):
No end group written: not given here.

Tests used:
[1] = tested on: FeCl3-induced carotid artery thrombus; assay: Targeted thrombolysis in vivo (delay of vessel occlusion, FeCl3 carotid thrombosis); parameters: species or system mouse; settings: ~400 IU SK where loaded, injected ~5 min after thrombus induction
Text: For targeted thrombolytic capacity assessment, Rhodamine 6G solution was first injected into the right jugular vein of the mouse to render direct fluorescent labeling of circulating platelets and the FeCl3-induced thrombus was created in the carotid as before, such that the formation of the thrombus and extent of vessel occlusion can be observed directly by monitoring the fluorescent platelets in the artery with intra-vital microscopy. For this, the carotid artery was thrombosed as before and […] of Rhodamine 6G solution was injected into the right jugular vein that results in direct fluorescent labeling of circulating platelets. This allows for imaging platelet-rich thrombus formation (and lysis) in real time. […] The effect of these various treatments on delaying the thrombus growth over time was imaged by intravital microscopy, with images recorded for 10 s every minute for the first 10 min and then 10 s every other minute until the end of the experiment. […] The end points of the experiment were: 1) when blood flow had ceased for >30 s due to vessel occlusion, or 2) if occlusion was not observed in 30 min after SK (free or vesicle-encapsulated) administration. […]

[2] = tested on: platelet-rich green fluorescent fibrin clot; assay: In vitro thrombolytic capacity in PPFC on platelet-rich fluorescent fibrin clots; type: cell-based; settings: flow over clot
Experimental: Glass microscope slides were incubated with collagen suspension in a circular region for 30 min (similar to slide preparation for PPFC-based binding studies) and then gently washed with 1×PBS. PRP with AlexaFluor 488-conjugated fibrinogen (6% v/v of 1.5 mg/mL, green fluorescent) was briefly mixed with α-thrombin and 0.5 M CaCl2), to final concentrations of 5 nM and […] respectively, to initiate clot formation and the mixture was pipetted (100 μl volume) onto the collagen-coated surface region. The clot was allowed to incubate for 1 h and then gently washed with 1×PBS to remove loosely bound components. The slide thus formed with platelet-rich green fluorescent fibrin clot on its surface, was sealed into the parallel plate flow chamber (PPFC) system, to be imaged under the inverted fluorescence microscope. The objective was focused on an area at the edge of the clot such that the initial field of view enabled observation of the green fluorescence of the fibrin clot throughout the whole area of view, and the clot lysis could then be observed as the loss of this fluorescence. […] In this experimental set-up, sPLA2-triggered degradation of clot-bound PMIN vesicles and resultant SK release was expected to convert the plasminogen to plasmin and thereby lyse the fibrin of the clot.

| Substance | activation of platelets by aggregometry (platelets) | delay in vessel occlusion [1] | time to clot lysis (loss of green fluorescence) [2] |
| --- | --- | --- | --- |
| TRYLRIHPQSWVHQI-NH2 [VBP] | inability of both VBP and CBP to activate platelets | – | – |
| streptokinase [free SK] | – | keeps the artery significantly open due to persistent thrombolysis | ≤ 15 min |
